According to patent US8946211B2, “Fused aminodihydrothiazine derivatives” (Eisai R&D Management Co., Ltd., priority 2008, dated 2015):
Like-named read-outs stand apart in the source and are kept apart here.

System: Aβ42 production
Experiment: Quantification of Aβ peptide in culture of neurons from rat fetus brain (Aβ ELISA)
Format: cell-based
Settings: rat primary cortical neuronal culture (embryonic day 18 Wistar rats), medium collected three days after addition of the compound, Aβx-42 ELISA, read-out: Aβ42 production reducing effect IC50
Description: Quantification of Aβ Peptide in Culture of Neurons from Rat Fetus Brain
(1) Rat Primary Neuronal Culture
Primary neuronal cultures were prepared from the cerebral cortex of embryonic day 18 Wistar rats (Charles River Japan, Yokohama, Japan). Specifically, the embryos were aseptically removed from pregnant rats under ether anesthesia. The brain was isolated from the embryo and immersed in an ice-cold L-15 medium (such as Invitrogen Corp. Cat #11415-064, Carlsbad, Calif., USA, or SIGMA L1518). The cerebral cortex was collected from the isolated brain under a stereoscopic microscope. The cerebral cortex fragments collected were enzymatically treated in an enzyme solution containing 0.25% trypsin (Invitrogen Corp. Cat #15050-065, Carlsbad, Calif., USA) and 0.01% DNase (Sigma D5025, St. Louis, Mo., USA) at 37° C. for 30 minutes to disperse the cells. Here, the enzymatic reaction was stopped by adding inactivated horse serum to the solution. The enzymatically treated solution was centrifuged at 1,500 rpm for five minutes to remove the supernatant. 5 to 10 mL of a medium was added to the resulting cell mass. Neurobasal medium (Invitrogen Corp. Cat #21103-049, Carlsbad, Calif., USA) supplemented with 2% B27 supplement (Invitrogen Corp. Cat #17504-044, Carlsbad, Calif., USA), 25 μM 2-mercaptoethanol (2-ME, WAKO Cat #139-06861, Osaka, Japan), 0.5 mM L-glutamine (Invitrogen Corp. Cat #25030-081, Carlsbad, Calif., USA), and Antibiotics-Antimycotics (Invitrogen Corp. Cat #15240-062, Carlsbad, Calif., USA) was used as the medium (Neurobasal/B27/2-ME). However, the above Neurobasal medium not supplemented with 2-ME (Neurobasal/B27) was used for the assay. The cells were redispersed by mild pipetting of the cell mass to which the medium was added. The cell dispersion was filtered through a 40-μm nylon mesh (Cell Strainer, Cat #35-2340, Becton Dickinson Labware, Franklin Lakes, N.J., USA) to remove the remaining cell mass, and thus a neuronal cell suspension was obtained. The neuronal cell suspension was diluted with the medium and then plated in a volume of 100 μL/well at an initial cell density of 5×10^5 cells/cm^2 in a 96-well polystyrene culture plate pre-coated with poly-L or D-lysine (Falcon Cat #35-3075, Becton Dickinson Labware, Franklin Lakes, N.J., USA coated with poly-L-lysine using the method shown below, or BIOCOAT™ cell environments Poly-D-lysine cell ware 96-well plate, Cat #35-6461, Becton Dickinson Labware, Franklin Lakes, N.J., USA). Poly-L-lysine coating was carried out as follows. 100 μg/mL of a poly-L-lysine (SIGMA P2636, St. Louis, Mo., USA) solution was aseptically prepared with a 0.15 M borate buffer (pH 8.5). […]

Compound	IC50	IC50 (Neuron, 72 h)
NC1=N[C@@]2(c3cc(NC(=O)c4ncccc4Br)ccc3F)CCCCC[C@H]2CS1 [Example 253]	171 nM	–
NC1=N[C@@]2(c3cc(NC(=O)c4ccc(Cl)cn4)ccc3F)CCCCC[C@H]2CS1 (single isomer, unassigned) [Example 248, N-[3-((4aR*,9aS*)-2-amino-4,4a,5,6,7,8,9,9a-octahydrocyclohepta[d][1,3]thiazin-9a-yl)-4-fluorophenyl]-5-chloropyridine-2-carboxamide]	–	16 nM
NC1=N[C@@]2(c3cc(NC(=O)c4ncccc4F)ccc3F)CCCCC[C@H]2CS1 [Example 251]	120 nM	–
NC1=N[C@@]2(c3cc(NC(=O)c4ncccc4C(F)(F)F)ccc3F)CCCCC[C@H]2CS1 [Example 252]	187 nM	–
